Experimental findings from US20120065187A1 (ALCON RESEARCH, LTD, priority 2008, published 2012) are described below.

The target of test [1] is T1, human H4 (Homo sapiens, UniProt Q9H3N8).
T1 construct: host or cells: CHO-K1
Description: In vitro histamine receptor cell-based assay (aequorin bioluminescence), H4 antagonism. The following applies: CHO-K1 cells expressing human H4, aequorin and Gα16; histamine at EC80; read-out: H4 Antagonist EC50. The gist of the method: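 Antagonism read as loss of aequorin luminescence after histamine (EC80 final) addition, following 15 min room-temperature compound pretreatment of coelenterazine-h-loaded (5 μM) CHO-K1 cells co-expressing human H4 and Gα16. Efficacy given relative to 10 μM JNJ7777120; agonism excluded in separate no-histamine runs.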

For test [2], the target named is T2, human H1 (Homo sapiens, UniProt P35367).
T2 construct: host or cells: CHO-K1
Description: In vitro histamine receptor cell-based assay (aequorin bioluminescence), H1 antagonism. The following applies: CHO-K1 cells expressing human H1 and aequorin; histamine at EC80; read-out: H1 Antagonist EC50. The gist of the method: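 Antagonism read as drop in aequorin luminescence after histamine challenge at a predetermined EC80, following 15 min compound pretreatment at room temperature. Cells: CHO-K1 carrying human H1, or H4 with Gα16; signal as AUC or amplitude, normalised to 10 μM diphenhydramine (H1) or JNJ7777120 (H4).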

The subject of test [3] is Hartley VAF outbred guinea pigs. Briefly: Allergic conjunctivitis in passively sensitized guinea pigs (conjunctival EPO activity). The class given is in vivo. Set-up: key: +: a ≦0.1% qd dose was statistically equivalent to dexamethasone with respect to reduction of EPO activity; −: the compound was statistically inferior to dexamethasone and not different than vehicle. The following applies: ≦0.1% qd topical, 1 hour prior to ovalbumin challenge; reduction of conjunctival EPO activity vs dexamethasone. The procedure: Male Hartley VAF outbred guinea pigs were passively sensitized to ovalbumin by a single OD subconjunctival injection of undiluted guinea pig anti-ovalbumin antiserum 24 hours before OD topical challenge with 500 μg ovalbumin in saline. Control animals were injected with saline only and challenged with ovalbumin. To determine acute phase drug efficacy, 30 min after challenge animals were clinically scored by a masked observer for severity of signs of conjunctivitis based on a standard scale. Test compounds were administered topically 1 hour prior to challenge (QD protocol), or 1 hour prior to challenge and again 8 hours after challenge (BID protocol). Twenty-four hours after challenge, animals were euthanized and conjunctivae were harvested for determination of tissue eosinophil peroxidase (EPO) concentration as a marker of allergic inflammation. Homogenates of freshly collected tissues were prepared by shaking the tissues in 2 mL round-bottom tubes containing 0.5 mL of homogenization buffer (50 mM Tris HCl, pH 8.0, 6 mM KBr) and one 5-mm stainless steel bead on a Qiagen TissueLyser at 30 Hz for 5 min. Homogenates were frozen and thawed once, then centrifuged at 10,000 rpm for 5 min. EPO activity in supernatants was measured by reacting diluted homogenates with a solution of 6 mM o-phenylenediamine substrate and 8.8 mM H2O2 in homogenization buffer for 3 min. The reaction was stopped with 4M H2SO4 and absorbances were measured at […] on a spectrophotometric plate reader. Total EPO in samples was calculated from a standard curve of recombinant human EPO in each assay. EPO activity was normalized to total protein concentration (Pierce BCA assay) in supernatants. Background EPO activity was determined from the unsensitized, antigen-challenged control group. Percent inhibition was calculated from the sensitized, antigen-challenged, vehicle-treated control group in each experiment. Ovalbumin-injected animals dosed topically with 0.1% w/v dexamethasone (dex) served as positive control. Groups were compared by ANOVA with Dunnett's or Tukey's post-hoc tests where appropriate with significance assigned at the 95% confidence level.
The table below summarizes the results.

The test system is the same in test [4]. Described as above. The class given is in vivo. Set-up: key: +: a 0.01% bid dose was statistically equivalent to dexamethasone with respect to reduction of EPO activity; −: the compound was statistically inferior to dexamethasone and not different than vehicle. The following applies: 0.01% bid topical, 1 hour prior to and 8 hours after ovalbumin challenge; reduction of conjunctival EPO activity vs dexamethasone.

T1 sequence (Q9H3N8 whole entry): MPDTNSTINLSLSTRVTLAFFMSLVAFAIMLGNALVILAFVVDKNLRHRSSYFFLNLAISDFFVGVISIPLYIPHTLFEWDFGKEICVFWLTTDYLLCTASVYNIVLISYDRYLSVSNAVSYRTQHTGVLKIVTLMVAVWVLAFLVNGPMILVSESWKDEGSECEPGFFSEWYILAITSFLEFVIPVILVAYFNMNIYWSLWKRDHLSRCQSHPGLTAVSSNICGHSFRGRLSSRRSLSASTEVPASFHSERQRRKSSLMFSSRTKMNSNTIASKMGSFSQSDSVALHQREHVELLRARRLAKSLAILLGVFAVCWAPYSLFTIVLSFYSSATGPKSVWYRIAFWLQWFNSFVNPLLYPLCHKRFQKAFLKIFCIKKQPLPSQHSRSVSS
T2 sequence (P35367 whole entry): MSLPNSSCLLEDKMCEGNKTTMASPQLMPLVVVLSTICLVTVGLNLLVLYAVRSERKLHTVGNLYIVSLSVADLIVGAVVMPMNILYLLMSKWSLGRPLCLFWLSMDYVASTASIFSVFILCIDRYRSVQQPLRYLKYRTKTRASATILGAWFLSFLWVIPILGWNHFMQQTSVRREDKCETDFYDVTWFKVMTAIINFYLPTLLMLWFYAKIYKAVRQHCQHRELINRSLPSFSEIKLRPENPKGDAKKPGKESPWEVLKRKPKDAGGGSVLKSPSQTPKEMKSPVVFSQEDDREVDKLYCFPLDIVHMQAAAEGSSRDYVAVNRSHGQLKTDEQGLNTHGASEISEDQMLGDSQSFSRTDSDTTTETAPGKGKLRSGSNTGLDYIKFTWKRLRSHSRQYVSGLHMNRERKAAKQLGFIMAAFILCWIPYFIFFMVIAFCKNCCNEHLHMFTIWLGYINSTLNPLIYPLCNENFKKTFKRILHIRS

With `CN1CCN(c2nc3ccc(Cl)cc3n3cnnc23)CC1` [Example 55, 8-chloro-4-(4-methylpiperazin-1-yl)-[1,2,4]triazolo[4,3-a]quinoxaline], the EC50 is less than 10 µM in test [1] and more than 10 µM in test [2]. Also, in test [3], the QD activity entry is “+”. Moreover, the BID activity entry in test [4] is “+”.
For `Clc1ccc2nc(N3CCNCC3)c3nncn3c2c1` [Example 57, 8-chloro-4-(piperazin-1-yl)-[1,2,4]triazolo[4,3-a]quinoxaline], the 50% effective concentration (EC50) is less than 10 µM in test [1] and more than 10 µM in test [2]. In addition, the QD activity entry in test [3] is “+”. Further, in test [4], the BID activity entry is “+”.
